Measured values published in US12145927B2 (BRISTOL-MYERS SQUIBB COMPANY, priority 2018, dated 2024).

Molecular target: T1, human IDO1 (Homo sapiens, UniProt P14902)
T1 construct: expressed in transfected cells
Assay: IDO inhibition assay in human IDO1/HEK293 cells (IDO1 HEK Human)
Format: cell-based
Conditions: HEK293 cells stably expressing human IDO1; 20 hours incubation; absorbance at 490 nm after Ehrlich reagent
Method: HEK293 cells were transfected with a pCDNA-based mammalian expression vector harboring human IDO1 cDNA (NM 002164.2) by electroporation. They were cultured in medium (DMEM with 10% FBS) containing 1 mg/ml G418 for two weeks. Clones of HEK293 cells that stably expressed human IDO1 protein were selected and expanded for IDO inhibition assay.
The human IDO1/HEK293 cells were seeded at 10,000 cells per 50 μL per well with RPMI/phenol red free media contains 10% FBS in a 384-well black wall clear bottom tissue culture plate (Matrix Technologies LLC) 100 nL of certain concentration of compound was then added to each well using ECHO liquid handling systems. The cells were incubated for 20 hours in 37° C. incubator with 5% CO2.
The compound treatments were stopped by adding trichloroacetic acid (Sigma-Aldrich) to a final concentration at 0.2%. The cell plate was further incubated at 50° C. for 30 minute. The equal volume supernatant (20 μL) and 0.2% (w/v) Ehrlich reagent (4-dimethylaminobenzaldehyde, Sigma-Aldrich) in glacial acetic acid were mixed in a new clear bottom 384-well plate. This plate was then incubated at RT for 30 minute. The absorbance at 490 nm was measured on Envision plate reader.
Compound IC50 values were calculated using the counts of 500 nM of a reference standard treatment as one hundred percent inhibition, and counts of no compound but DMSO treatment as zero percent inhibition.

T1 sequence (P14902 whole entry): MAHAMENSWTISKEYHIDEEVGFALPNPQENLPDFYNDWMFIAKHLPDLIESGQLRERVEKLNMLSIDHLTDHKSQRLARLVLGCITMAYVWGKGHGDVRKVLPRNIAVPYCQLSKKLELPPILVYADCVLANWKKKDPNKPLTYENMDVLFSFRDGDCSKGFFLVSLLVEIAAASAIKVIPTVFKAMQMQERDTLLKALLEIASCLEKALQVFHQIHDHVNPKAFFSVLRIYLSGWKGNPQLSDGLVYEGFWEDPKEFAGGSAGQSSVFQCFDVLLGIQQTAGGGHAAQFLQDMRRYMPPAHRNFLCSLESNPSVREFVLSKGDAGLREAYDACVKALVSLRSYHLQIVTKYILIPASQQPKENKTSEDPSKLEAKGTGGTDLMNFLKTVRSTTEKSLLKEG

Compound | IC50 [nM]
Cc1ccc(CC(=O)Nc2cc(-c3ccccc3-c3nnn[nH]3)cc3c2OCCCC3C2CC2)cc1 (single isomer, unassigned) [37 (En. 2), N-(7-(2-(1H-tetrazol-5-yl)phenyl)-5-cyclopropyl-2,3,4,5-tetrahydrobenzo[b]oxepin-9-yl)-2-(p-tolyl)acetamide] | 30.8
Cc1csc(NC(=O)Nc2cc(-c3ccccc3-c3nnn[nH]3)cc3c2OCCCC3c2ccccc2)n1 (centres unmarked) [Example 12, 1-(7-(2-(1H-tetrazol-5-yl)phenyl)-5-phenyl-2,3,4,5-tetrahydrobenzo[b]oxepin-9-yl)-3-(4-methylthiazol-2-yl)urea] | 1070
Fc1ccc2nc(Nc3cc(-c4ccccc4-c4nnn[nH]4)cc4c3OCCCC4c3ccccc3)sc2c1 (single isomer, unassigned) [57 (En. 1), N-(7-(2-(1H-tetrazol-5-yl)phenyl)-5-phenyl-2,3,4,5-tetrahydrobenzo[b]oxepin-9-yl)-6-fluorobenzo[d]thiazol-2-amine] | 849
Cc1ccc(CC(=O)Nc2cc(-c3ccccc3-c3nnn[nH]3)cc3c2OCCCC3C2CC2)cc1 (racemic) [37 (Rac), N-(7-(2-(1H-tetrazol-5-yl)phenyl)-5-cyclopropyl-2,3,4,5-tetrahydrobenzo[b]oxepin-9-yl)-2-(p-tolyl)acetamide] | 117
CCC(C)C1CCCOc2c(NC(=O)Cc3ccc(C)cc3)cc(-c3ccccc3-c3nnn[nH]3)cc21 (single isomer, unassigned) [30 (Dia. mix 1), N-(7-(2-(1H-tetrazol-5-yl)phenyl)-5-(sec-butyl)-2,3,4,5-tetrahydrobenzo[b]oxepin-9-yl)-2-(p-tolyl)acetamide] | 77.6
Cc1ccc(NC(=O)Nc2cc(-c3ccccc3C(N)=O)cc3c2OCCCC3c2ccccc2)cc1 (centres unmarked) [Example 7, 2-(5-phenyl-9-(3-(p-tolyl)ureido)-2,3,4,5-tetrahydrobenzo[b]oxepin-7-yl)benzamide] | 40.8
Cc1ccc(CC(=O)Nc2cc(-c3ccccc3-c3nnn[nH]3)cc3c2OCCCC3C2CC2)c(F)c1 (single isomer, unassigned) [39 (En. 1)] | > 6000
O=C(Nc1cc(-c2ccccc2-c2nnn[nH]2)cc2c1OCCCC2c1ccccc1)NC1CC1 (single isomer, unassigned) [23 (En. 1), 1-(7-(2-(1H-tetrazol-5-yl)phenyl)-5-phenyl-2,3,4,5-tetrahydrobenzo[b]oxepin-9-yl)-3-cyclopropylurea] | 3500
Cc1ccc(NC(=O)Nc2cc(-c3ccccc3S(=O)(=O)NC(=O)c3ccccc3)cc3c2OCCCC3c2ccccc2)cc1 (single isomer, unassigned) [60 (En. 1), N-((2-(5-phenyl-9-(3-(p-tolyl)ureido)-2,3,4,5-tetrahydrobenzo[b]oxepin-7-yl)phenyl)sulfonyl)benzamide] | > 6000
Cc1ccc(NC(=O)Nc2cc(-c3ccccc3-c3nnn[nH]3)cc3c2OCC(O)C(O)C3c2ccccc2)cc1 (racemic) [9 (Rac.), 1-(7-(2-(1H-tetrazol-5-yl)phenyl)-3,4-dihydroxy-5-phenyl-2,3,4,5-tetrahydrobenzo[b]oxepin-9-yl)-3-(p-tolyl)urea] | 1040
Cc1ccc(NC(=O)Nc2cc(-c3ccccc3-c3nnn[nH]3)cc3c2OCCCC3C)cc1 (centres unmarked) [Example 31, 1-(7-(2-(1H-tetrazol-5-yl)phenyl)-5-methyl-2,3,4,5-tetrahydrobenzo[b]oxepin-9-yl)-3-(p-tolyl)urea] | 70.8
Cc1ccc(NC(=O)Nc2cc(-c3ccccc3-c3nc(=O)o[nH]3)cc3c2OCCCC3C2CC2)cc1 (single isomer, unassigned) [Example 33-2, 1-(5-cyclopropyl-7-(2-(5-oxo-2,5-dihydro-1,2,4-oxadiazol-3-yl)phenyl)-2,3,4,5-tetrahydrobenzo[b]oxepin-9-yl)-3-(p-tolyl)urea] | 8
O=C(Nc1cc(-c2ccccc2-c2nnn[nH]2)cc2c1OCCCC2c1ccccc1)NC1CC1 (single isomer, unassigned) [23 (En. 2), 1-(7-(2-(1H-tetrazol-5-yl)phenyl)-5-phenyl-2,3,4,5-tetrahydrobenzo[b]oxepin-9-yl)-3-cyclopropylurea] | > 6000
Cc1ccc(NC(=O)Nc2cc(-c3ccccc3-c3nnn[nH]3)cc3c2OCCCC3c2ccccc2)nc1 (single isomer, unassigned) [Example 3, 1-(7-(2-(1H-tetrazol-5-yl)phenyl)-5-phenyl-2,3,4,5-tetrahydrobenzo[b]oxepin-9-yl)-3-(5-methylpyridin-2-yl)urea] | 35.6

Now from value to compound:

IC50 [nM] | Compound
381 | COC(=O)c1c(OC)cccc1-c1cc(NC(=O)Nc2ccc(C)cc2)c2c(c1)C(c1ccccc1)CCCO2 (centres unmarked) [Example 65, methyl 2-methoxy-6-(5-phenyl-9-(3-(p-tolyl)ureido)-2,3,4,5-tetrahydrobenzo[b]oxepin-7-yl)benzoate]
18.5 | Cc1ccc(-c2nnn[nH]2)c(-c2cc(Nc3ccc(Cl)cc3F)c3c(c2)C(c2ccccc2)CCCO3)c1 (single isomer, unassigned) [Example 75, N-(4-chloro-2-fluorophenyl)-7-(5-methyl-2-(1H-tetrazol-5-yl)phenyl)-5-phenyl-2,3,4,5-tetrahydrobenzo[b]oxepin-9-amine]
87 | C=CC1Oc2c(NC(=O)Nc3ccc(C)cc3)cc(-c3cc(F)ccc3C(=O)O)cc2C1c1ccccc1 (racemic) [Example 98]
18 | CC[C@@H]1Oc2c(NC(=O)Nc3ccc(C)cc3)cc(-c3ccccc3-c3nnn[nH]3)cc2[C@H]1c1ccccc1 (racemic) [Example 90, (+/−)-1-((trans)-5-(2-(1H-tetrazol-5-yl)phenyl)-3-phenyl-2-ethyl-2,3-dihydrobenzofuran-7-yl)-3-(p-tolyl)urea]
14.4 | Cc1ccc(NC(=O)Nc2cc(-c3cc(C)ccc3C(=O)O)cc3c2OCCCC3c2ccccc2)cc1 (single isomer, unassigned) [Example 68, 4-methyl-2-(5-phenyl-9-(3-(p-tolyl)ureido)-2,3,4,5-tetrahydrobenzo[b]oxepin-7-yl)benzoic acid]
3.1 | Cc1nc2ccc(Nc3cc(-c4ccccc4-c4nnn[nH]4)cc4c3OCCCC4c3ccccc3)cc2s1 (single isomer, unassigned) [Example 71, N-(7-(2-(1H-tetrazol-5-yl)phenyl)-5-phenyl-2,3,4,5-tetrahydrobenzo[b]oxepin-9-yl)-2-methylbenzo[d]thiazol-6-amine]
11 | Cc1ccc(NC(=O)Nc2cc(-c3ccccc3-c3nnn[nH]3)cc3c2OC(C(C)C)C3c2ccccc2)cc1 (racemic) [Example 103]
2510 | c1ccc(C2CCCOc3c(Nc4ccnc5ccnn45)cc(-c4ccccc4-c4nnn[nH]4)cc32)cc1 (single isomer, unassigned) [Example 81, N-(7-(2-(1H-tetrazol-5-yl)phenyl)-5-phenyl-2,3,4,5-tetrahydrobenzo[b]oxepin-9-yl) pyrazolo[1,5-a]pyrimidin-7-amine]
16 | C=C[C@H]1Oc2c(NC(=O)Nc3ccc(C)cc3)cc(-c3ccccc3-c3nnn[nH]3)cc2[C@@H]1CCC(F)(F)F (single isomer, unassigned) [Example 129, 1-((trans)-5-(2-(1H-tetrazol-5-yl)phenyl)-3-(3,3,3-trifluoropropyl)-2-vinyl-2,3-dihydrobenzofuran-7-yl)-3-(p-tolyl)urea]
77 | Cc1ccc(NC(=O)Nc2cc(-c3ccccc3C(=O)O)cc3c2OC(C)(C)C3c2ccccc2)cc1 (racemic) [Example 124, (±)-2-(2,2-Dimethyl-3-phenyl-7-(3-(p-tolyl)ureido)-2,3-dihydrobenzofuran-5-yl) benzoic acid]
33.5 | Cc1ccc(-c2nnn[nH]2)c(-c2cc(Nc3ccc(OC(F)F)cc3)c3c(c2)C(c2ccccc2)CCCO3)c1 (single isomer, unassigned) [Example 79, N-(4-(difluoromethoxy)phenyl)-7-(5-methyl-2-(1H-tetrazol-5-yl)phenyl)-5-phenyl-2,3,4,5-tetrahydrobenzo[b]oxepin-9-amine]
2500 | Cc1ccc(NC(=O)Nc2cc(-c3cc(F)ccc3C(=O)O)cc3c2O[C@@H](C)[C@H]3CCC(F)(F)F)cc1 (relative stereo) [Example 117, rel-4-fluoro-2-((2R,3R)-2-methyl-7-(3-(p-tolyl)ureido)-3-(3,3,3-trifluoropropyl)-2,3-dihydrobenzofuran-5-yl)benzoic acid]
23 | Cc1ccc(NC(=O)Nc2cc(-c3ccccc3-c3nnn[nH]3)cc3c2O[C@@H](C)[C@@H]3CCC(F)(F)F)cc1 (relative stereo) [Example 118, rel-1-((2R,3S)-5-(2-(2H-tetrazol-5-yl)phenyl)-2-methyl-3-(3,3,3-trifluoropropyl)-2,3-dihydrobenzofuran-7-yl)-3-(p-tolyl)urea]
14.6 | Cc1ccc(NC(=O)Nc2cc(-c3ccccc3-c3nnn[nH]3)cc3c2OCCC(C)C3C)cc1 (mixture of isomers) [Example 69, 1-(7-(2-(1H-tetrazol-5-yl)phenyl)-4,5-dimethyl-2,3,4,5-tetrahydrobenzo[b]oxepin-9-yl)-3-(p-tolyl)urea]
66 | Cc1ccc(-c2nnn[nH]2)c(-c2cc(NC(=O)Nc3ccccc3F)c3c(c2)C(C2CC2)CCCO3)c1 (single isomer, unassigned) [Example 34-1]
